# Data from patent US9889146B2, “Benzoxaborole compounds and uses thereof” (priority 2012, dated 2018).
# Legend:
# Format in all cases: cell-based
# Enterobacteriaceae = assay: organism not typed; conditions: Enterobacteriaceae; for MIC90: 2029 isolates
# [1] = system: Enterobacter aerogenes (AmpC); assay: microbe, parasite or virus in culture; conditions: Enterobacter aerogenes (AmpC); for MIC90: 51 isolates
# [2] = system: E. coli ATCC 25922, K. pneumoniae ATCC 13883 and P. aeruginosa ATCC 27853; assay: MIC, three strains and their mutants summarised; conditions: MIC in E. coli, P. aeruginosa and K. pneumoniae mutants versus wild-type
# Description: (§1) Spontaneous Resistance Frequency was determined in vitro for GSK2251052 and the resistance mutants in E. coli ATCC 25922, K. pneumoniae ATCC 13883, and P. aeruginosa ATCC 27853 strains were characterized. GSK2251052 was prepared as described in U.S. Pat. No. 7,816,344 (the entire contents of which are hereby incorporated by reference herein). LB broth, Mueller Hinton II broth (adjusted), and Difco noble agar were obtained from Becton Dickinson (Cockeysville, Md., USA). M9 minimal broth containing 1×M9 salt, 0.5 μg/ML thiamine, 1 mM MgSO4, 0.1 mM CaCl2, 2% glucose, was obtained from Teknova (Hollister, Calif., USA). Antibacterial agents ciprofloxacin, ceftazidime, chloramphenicol, gentamycin, kanamycin, polymixin B, tobramycin and trimethoprim, and amino acids were obtained from Sigma Chemicals (St. Louis, Mo., USA). Strains were obtained from ATCC (Manassas, Va., USA).
# (§2) Susceptibility tests were performed following the recommendations for aerobic bacteria (M7-A7) from the Clinical and Laboratories Standards Institute (CLSI).
# (§3) Laboratory generated mutants resistant to GSK2251052 contain mutations in the editing domain of LeuRS. Six to ten GSK2251052 resistant colonies of E. coli ATCC 25922, K. pneumoniae ATCC 13883 and P. aeruginosa ATCC 27853 were selected for further analysis and their MICs to GSK2251052 were determined (Table 4-7).
# GSK2251052 resistant mutants were not cross-resistant to commercial antibiotics.
# Proteus vulgaris (WT) = assay: microbe, parasite or virus in culture; conditions: Proteus vulgaris (WT); for MIC90: 41 isolates
# [3] = system: Morganella morganii (AmpC); assay: microbe, parasite or virus in culture; conditions: Morganella morganii (AmpC); for MIC90: 18 isolates
# E. coli (ESBL) = assay: microbe, parasite or virus in culture; conditions: E. coli (ESBL); for MIC90: 27 isolates
# S. marcescens (AmpC) = assay: microbe, parasite or virus in culture; conditions: S. marcescens (AmpC); for MIC90: 26 isolates
# [4] = system: E. coli ATCC 25922 wild type and mutants; assay: MIC, wild type and GSK2251052 resistant mutants
# Description: as §1, §2, §3
# [5] = system: P. aeruginosa ATCC 27853 wild type and mutants; assay: MIC, wild type and GSK2251052 resistant mutants
# Description: as §1, §2, §3
# [6] = system: K. pneumoniae ATCC 13883 wild type and mutants; assay: MIC, wild type and GSK2251052 resistant mutants
# Description: as §1, §2, §3
# [7] = system: Enterobacter aerogenes (WT); assay: microbe, parasite or virus in culture; conditions: Enterobacter aerogenes (WT); for MIC90: 199 isolates
# [8] = system: Enterobacter cloacae (WT); assay: microbe, parasite or virus in culture; conditions: for MIC90: 202 isolates
# E. coli (WT) = assay: microbe, parasite or virus in culture; conditions: E. coli (WT); for MIC90: 214 isolates
# Klebsiella spp. (KPC) = assay: microbe, parasite or virus in culture; conditions: Klebsiella spp. (KPC); for MIC90: 26 isolates
# [9] = system: Citrobacter freundii (AmpC); assay: microbe, parasite or virus in culture; conditions: Citrobacter freundii (AmpC); for MIC90: 60 isolates
# [10] = system: Enterobacter cloacae (AmpC); assay: microbe, parasite or virus in culture; conditions: Enterobacter cloacae (AmpC); for MIC90: 50 isolates
# Providencia spp.(all) = assay: microbe, parasite or virus in culture; conditions: Providencia spp.(all); for MIC90: 68 isolates
# Klebsiella spp. (ESBL) = assay: microbe, parasite or virus in culture; conditions: Klebsiella spp. (ESBL); for MIC90: 71 isolates
# Klebsiella spp. (WT) = assay: microbe, parasite or virus in culture; conditions: Klebsiella spp. (WT); for MIC90: 159 isolates
# Proteus mirabilis (WT) = assay: microbe, parasite or virus in culture; conditions: Proteus mirabilis (WT); for MIC90: 235 isolates
substance,measurement,setting,value
Polymixin B,MIC90,Enterobacteriaceae,> 8 µg/mL
same,susceptibility category of MIC90,Enterobacteriaceae; polymixinB criteria,*** (resistant ≧8 μg/mL)
same,MIC90,[1],2 µg/mL
same,susceptibility category of MIC90,[1]; polymixinB criteria,* (susceptible ≦2 μg/mL)
same,cross-resistance of GSK2251052 resistant mutants,[2],did not have any significant difference in MIC values than wild-type
same,MIC90,Proteus vulgaris (WT),> 8 µg/mL
same,susceptibility category of MIC90,Proteus vulgaris (WT); polymixinB criteria,*** (resistant ≧8 μg/mL)
same,MIC90,[3],> 8 µg/mL
same,susceptibility category of MIC90,[3]; polymixinB criteria,*** (resistant ≧8 μg/mL)
same,MIC90,E. coli (ESBL),2 µg/mL
same,susceptibility category of MIC90,E. coli (ESBL); polymixinB criteria,* (susceptible ≦2 μg/mL)
same,MIC90,S. marcescens (AmpC),> 8 µg/mL
same,susceptibility category of MIC90,S. marcescens (AmpC); polymixinB criteria,*** (resistant ≧8 μg/mL)
same,MICs,[4]; E wt,4 µg/mL
same,MICs,[4]; mutant E 101,4 µg/mL
same,MICs,[4]; mutant E 102,4 µg/mL
same,MICs,[4]; mutant E 107,4 µg/mL
same,MICs,[5]; P wt.,4 µg/mL
same,MICs,[5]; mutant P 101,4 µg/mL
same,MICs,[5]; mutant P106,2 µg/mL
same,MICs,[5]; mutant P108,4 µg/mL
same,MICs,[6]; K wt.,4 µg/mL
same,MICs,[6]; mutant K 104,8 µg/mL
same,MICs,[6]; mutant K 105,4 µg/mL
same,MICs,[6]; mutant K 107,2 µg/mL
same,MICs,[6]; mutant K 108,4 µg/mL
same,MICs,[6]; mutant K 110,4 µg/mL
same,MIC90,[7],4 µg/mL
same,susceptibility category of MIC90,[7]; polymixinB criteria,** (intermediate 4 μg/mL)
same,MIC90,[8],> 8 µg/mL
same,susceptibility category of MIC90,[8]; polymixinB criteria,*** (resistant ≧8 μg/mL)
same,MIC90,E. coli (WT),1 µg/mL
same,susceptibility category of MIC90,E. coli (WT); polymixinB criteria,* (susceptible ≦2 μg/mL)
same,MIC90,Klebsiella spp. (KPC),> 8 µg/mL
same,susceptibility category of MIC90,Klebsiella spp. (KPC); polymixinB criteria,*** (resistant ≧8 μg/mL)
same,MIC90,[9],1 µg/mL
same,susceptibility category of MIC90,[9]; polymixinB criteria,* (susceptible ≦2 μg/mL)
same,MIC90,[10],4 µg/mL
same,susceptibility category of MIC90,[10]; polymixinB criteria,** (intermediate 4 μg/mL)
same,MIC90,Providencia spp.(all),8 µg/mL
same,susceptibility category of MIC90,Providencia spp.(all); polymixinB criteria,*** (resistant ≧8 μg/mL)
same,MIC90,Klebsiella spp. (ESBL),2 µg/mL
same,susceptibility category of MIC90,Klebsiella spp. (ESBL); polymixinB criteria,* (susceptible ≦2 μg/mL)
same,MIC90,Klebsiella spp. (WT),1 µg/mL
same,susceptibility category of MIC90,Klebsiella spp. (WT); polymixinB criteria,* (susceptible ≦2 μg/mL)
same,MIC90,Proteus mirabilis (WT),> 8 µg/mL
same,susceptibility category of MIC90,Proteus mirabilis (WT); polymixinB criteria,*** (resistant ≧8 μg/mL)
Gentamicin,MIC90,Enterobacteriaceae,16 µg/mL
same,MIC90,[1],4 µg/mL
same,cross-resistance of GSK2251052 resistant mutants,[2],did not have any significant difference in MIC values than wild-type
same,MIC90,Proteus vulgaris (WT),2 µg/mL
same,MIC90,[3],> 16 µg/mL
same,MIC90,E. coli (ESBL),> 16 µg/mL
same,MIC90,S. marcescens (AmpC),> 16 µg/mL
same,MICs,[4]; E wt,2 µg/mL
same,MICs,[4]; mutant E 101,1 µg/mL
same,MICs,[4]; mutant E 102,1 µg/mL
same,MICs,[4]; mutant E 107,1 µg/mL
same,MICs,[5]; P wt.,8 µg/mL
same,MICs,[5]; mutant P 101,4 µg/mL
same,MICs,[5]; mutant P106,4 µg/mL
same,MICs,[5]; mutant P108,4 µg/mL
same,MICs,[6]; K wt.,1 µg/mL
same,MICs,[6]; mutant K 104,1 µg/mL
same,MICs,[6]; mutant K 105,1 µg/mL
same,MICs,[6]; mutant K 107,1 µg/mL
same,MICs,[6]; mutant K 108,0.5 µg/mL
same,MICs,[6]; mutant K 110,1 µg/mL
same,MIC90,[7],1 µg/mL
same,MIC90,[8],1 µg/mL
same,MIC90,E. coli (WT),> 16 µg/mL
same,MIC90,Klebsiella spp. (KPC),16 µg/mL
same,MIC90,[9],> 16 µg/mL
same,MIC90,[10],> 16 µg/mL
same,MIC90,Providencia spp.(all),> 16 µg/mL
same,MIC90,Klebsiella spp. (ESBL),> 16 µg/mL
same,MIC90,Klebsiella spp. (WT),1 µg/mL
same,MIC90,Proteus mirabilis (WT),4 µg/mL
